One substance from patent US9167837B2, “Peptides imparting umami, salt, dairy and bitter flavor” (International Flavors & Fragrances Inc., priority 2007, dated 2015) can be followed below.

The nature of assay [1]: Addition of flavor active peptide to unflavored cheese sauce, evaluation of imparted flavor. The settings on record: 0.015% (w/w based) peptide added to unflavored cheese sauce of Table 1. Here is the method: Addition of the Gly-Pro-Phe-Pro-Ile (SEQ ID NO:2) peptide to the unflavored cheese sauce listed in Table 1 was carried out to evaluate the flavor imparted by the flavor active peptide. The cheese sauce formulation can be described as having a mild, Monterey Jack cheese sauce flavor with some salty and savory notes.

A short description of assay [2]: Addition of flavor active peptide to seasoned microwave popcorn, evaluation of imparted flavor. The conditions noted are these: approximately 0.1% peptide in popped microwave popcorn with White Cheddar Snack Seasoning (Table 3). Here is the method:
Addition of the Gly-Pro-Phe-Pro-Ile (SEQ ID NO:2) peptide to the base microwave popcorn listed in Table 2 was carried out to evaluate the flavor imparted by the flavor active peptide.
The sodium content of the resulting seasoned popcorn was 596.6 mg Na^+/1 oz serving.

As to “Gly-Pro-Phe-Pro-Ile (GPFPI) [Gly-Pro-Phe-Pro-Ile (SEQ ID NO:2)]”, the “flavor imparted by the flavor active peptide” value in assay [1] was “made the sauce taste more salty, creamy and dairy”; in assay [2] it was “imparted an increase in cheesyness, mouthfeel, and some umami character”.
